Molecular target: T1, CjCBM5 (family 5 carbohydrate-binding module of CjLPMO10A) (Cellvibrio japonicus, UniProt B3PJ79)
T1 construct: gene cbp33A; isolated CBM5 domain, residues 251-309 of 397; extra N-terminal Met, C-terminal Ala + 6xHis tag kept; 15N-labelled; E. coli cytoplasmic expression (pNIC-CH)
Test: NMR titration, […]-HSQC chemical shift perturbation
Conditions: 50 mM sodium phosphate, pH 7.0, 10% D2O; 70 uM 15N-labelled protein; average of W283, T284, Q285, Y296, G297

T1 sequence (B3PJ79 entry or part of it): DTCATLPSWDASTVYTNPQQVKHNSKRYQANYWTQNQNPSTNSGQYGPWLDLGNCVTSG

Kd: 2000 ± 1000 µM
Compound: CC(=O)N[C@H]1[C@H](O[C@H]2[C@H](O)[C@@H](NC(C)=O)C(O[C@H]3[C@H](O)[C@@H](NC(C)=O)C(O[C@H]4[C@H](O)[C@@H](NC(C)=O)C(O[C@H]5[C@H](O)[C@@H](NC(C)=O)C(O[C@H]6[C@H](O)[C@@H](NC(C)=O)C(O)O[C@@H]6CO)O[C@@H]5CO)O[C@@H]4CO)O[C@@H]3CO)O[C@@H]2CO)O[C@H](CO)[C@@H](O)[C@@H]1O (stereo partly shown) [chitohexaose]
